Measurements published in US20250177393A1, “MODULATORS OF MYC FAMILY PROTO-ONCOGENE PROTEIN” (Nalo Therapeutics, priority 2022, published 2025).
Like-named read-outs stand apart in the source and are kept apart here.

Key:
MycC = target: T1, MycC (Homo sapiens, UniProt P01106); assay: Degradation of MycC protein in L363 cells (JESS/Western blot); format: cell-based; settings: L-363 cells, 24 h; for Dmax at 3 µM: read-out: % Degradation of MycC (L-363) 24 h, 3 μM; for Dmax at 6 µM: read-out: % Degradation of MycC (L-363) 24 h, 6 μM; for Dmax at 0.5 µM: read-out: % Degradation of MycC (L-363) 24 h, 0.5 μM; for Dmax at 1 µM: read-out: % Degradation of MycC (L-363) 24 h, 1 μM
T1 construct: endogenous in cells; host or cells: L363
T1 sequence (P01106 whole entry): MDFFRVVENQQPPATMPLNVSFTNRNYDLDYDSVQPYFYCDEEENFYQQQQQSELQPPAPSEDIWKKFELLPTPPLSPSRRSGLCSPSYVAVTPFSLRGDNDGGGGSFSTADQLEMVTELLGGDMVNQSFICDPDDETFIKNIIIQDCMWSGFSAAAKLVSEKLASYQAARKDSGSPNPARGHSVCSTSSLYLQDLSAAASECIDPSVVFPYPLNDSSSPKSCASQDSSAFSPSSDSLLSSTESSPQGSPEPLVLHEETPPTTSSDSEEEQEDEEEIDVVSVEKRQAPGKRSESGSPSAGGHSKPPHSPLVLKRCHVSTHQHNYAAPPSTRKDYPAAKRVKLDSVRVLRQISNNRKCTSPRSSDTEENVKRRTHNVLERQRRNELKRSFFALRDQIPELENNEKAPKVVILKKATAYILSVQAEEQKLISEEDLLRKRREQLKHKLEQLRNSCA
Procedure: (§1) For L363 cells (suspension), 1E6 cells were plated into each well of a 6 well plate. For SK—N-BE(2) cells (adherent), 5E5 cells were plated into each well of a 6 well dish. […] All compounds were diluted to 10 mM in DMSO. Cells were treated with the compound for 24 hrs, then for both cell types, media containing cells were removed from wells into a 15 ml centrifuge tube, and remaining adherent SK—N-BE(2) cells were also scraped from the wells into the appropriate tubes. Tubes were centrifuged, cells were washed with PBS then re-centrifuged to pellet cells. A RIPA buffer cocktail was added to the cells on ice for 5 mins. Cell lysates were clarified by centrifugation and stored at −80 degrees until required. BCA assay was performed on each lysate to determine the protein concentration. For validation studies of antibodies, lysates and antibodies were used at a number of concentrations (Lysates: 2, 1, 0.2 mg/ml; Antibodies: 1 in 50, 1 in 200 dilution). Once an appropriate lysate concentration and antibody concentration was determined, samples were screened in the JESS technology (Protein Simple, San Jose, CA—https://www.proteinsimple.com/jess.html). Target protein antibodies (n-myc and c-myc) were detected in the chemiluminescence channel and loading controls (tubulin and GAPDH) were detected using a Near Infra Red (NIR) labeled secondary antibody. For SK—N-EB2 adherent cells, 5E5 cells in 1.9 mls media were plated into 6 well dishes and incubated for 24 hrs. […] Cells were scrapped off the plate, centrifuged, washed with PBS, centrifuged, then a RIPA buffer cocktail added to the cells (100 ul), centrifuged and stored at −80 for later analysis. For L363 suspension cells, 1E6 cells were plated into 24 well dishes (950 ul media) and incubated for 24 hrs. […] Cells were aspirated into tubes, centrifuged, washed with PBS, centrifuged, then a RIPA buffer cocktail added to the cells (100 ul), centrifuged and stored at −80 for later analysis. For Western blot, a BCA (total protein) assay was run on all samples, these were then run in batches of 5 compounds plus control (DMSO) on each Western blot run—n-myc and c-myc were run in separate experiments in the chemiluminescence channel. Both tubulin and GAPDH were run as loading controls in all lanes in the near infra red channel.

MycN = target: T2, MycN (Homo sapiens, UniProt P04198); assay: Degradation of MycN protein in SK-N-BE(2) cells (JESS/Western blot); format: cell-based; settings: for Dmax at 1 µM: read-out: % Degradation of MycN (SKNBE2) 24 h, 1 μM; for Dmax at 3 µM: read-out: % Degradation of MycN (SKNBE2) 24 h, 3 μM; for Dmax at 6 µM: read-out: % Degradation of MycN (SKNBE2) 24 h, 6 μM; for Dmax at 0.5 µM: read-out: % Degradation of MycN (SKNBE2) 24 h, 0.5 μM
T2 construct: endogenous in cells; host or cells: SK-N-BE(2)
T2 sequence (P04198 1-464): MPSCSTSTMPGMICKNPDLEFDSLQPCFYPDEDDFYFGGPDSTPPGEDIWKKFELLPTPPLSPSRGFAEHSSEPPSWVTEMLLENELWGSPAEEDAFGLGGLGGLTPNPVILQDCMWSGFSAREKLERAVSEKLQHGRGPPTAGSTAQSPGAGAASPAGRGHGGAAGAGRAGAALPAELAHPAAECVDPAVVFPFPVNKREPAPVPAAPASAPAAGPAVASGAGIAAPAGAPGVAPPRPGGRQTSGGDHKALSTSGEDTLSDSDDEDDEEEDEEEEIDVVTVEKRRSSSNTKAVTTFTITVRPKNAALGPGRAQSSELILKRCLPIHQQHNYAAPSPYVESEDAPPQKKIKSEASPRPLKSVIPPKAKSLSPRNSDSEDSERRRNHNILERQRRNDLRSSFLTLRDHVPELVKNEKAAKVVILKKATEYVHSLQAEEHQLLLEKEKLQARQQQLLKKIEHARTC
Procedure: as §1

| SMILES | Dmax at 3 µM (MycC) [%] | Dmax at 6 µM (MycC) [%] | Dmax at 1 µM (MycN; SKNBE2 cells, 24 h, 1 μM) [%] | Dmax at 3 µM (MycN; SKNBE2 cells, 24 h, 3 μM) [%] | Dmax at 6 µM (MycN; SKNBE2 cells, 24 h, 6 μM) [%] | Dmax at 0.5 µM (MycN; SKNBE2 cells, 24 h, 0.5 μM) [%] | Dmax at 0.5 µM (MycC) [%] | Dmax at 1 µM (MycC) [%] | Dmax at 0.5 µM (MycN; SKNBE2, 24 h) [%] | Dmax at 1 µM (MycN; SKNBE2, 24 h) [%] | Dmax at 3 µM (MycN; SKNBE2, 24 h) [%] | Dmax at 6 µM (MycN; SKNBE2, 24 h) [%] |
| --- | --- | --- | --- | --- | --- | --- | --- | --- | --- | --- | --- | --- |
| Cn1cc(C(=O)N2CCC(Nc3nccc(Nc4cc(C5CC5)[nH]n4)n3)CC2)nn1 [Compound 37, (4-((4-((5-Cyclopropyl-1H-pyrazol-3-yl)amino)pyrimidin-2-yl)amino)piperidin-1-yl)(1-methyl-1H-1,2,3-triazol-4-yl)methanone] | 20 to 49 | < 20 | < 20 | 20 to 49 | 20 to 49 | – | – | – | – | – | – | – |
| CN(CC12CNC(C1)C2)c1nccc(Nc2cc(C3CC3)[nH]n2)n1 [Compound 2, N^2-((2-Azabicyclo[2.1.1]hexan-4-yl)methyl)-N^4-(5-cyclopropyl-1H-pyrazol-3-yl)-N^2-methylpyrimidine-2,4-diamine] | – | – | < 20 | 20 to 49 | 50 to 79 | 20 to 49 | – | – | – | – | – | – |
| c1cc(Nc2cc(C3CC3)[nH]n2)nc(NC2CCOCC2)n1 [Compound 65, N4-(5-Cyclopropyl-1H-pyrazol-3-yl)-N2-tetrahydropyran-4-yl-pyrimidine-2,4-diamine] | 80 to 100 | 80 to 100 | 50 to 79 | 80 to 100 | 80 to 100 | 20 to 49 | 20 to 49 | 80 to 100 | – | – | – | – |
| c1cc(Nc2cc(C3CC3)[nH]n2)nc(NC2CC3(CNC3)C2)n1 [Compound 28, N^4-(5-cyclopropyl-1H-pyrazol-3-yl)-N^2-(2-azaspiro[3.3]heptan-6-yl)pyrimidine-2,4-diamine] | < 20 | 20 to 49 | – | – | < 20 | – | < 20 | < 20 | – | – | – | – |
| c1cc(Nc2cc(C3CCCC3)[nH]n2)nc(NC2CCNCC2)n1 [Compound 32, N^4-(5-cyclopentyl-1H-pyrazol-3-yl)-N^2-(piperidin-4-yl)pyrimidine-2,4-diamine] | 80 to 100 | 80 to 100 | 50 to 79 | 80 to 100 | 80 to 100 | – | 50 to 79 | 50 to 79 | – | – | – | – |
| CN1CC2(CC(Nc3nccc(Nc4cc(C5CCCC5)[nH]n4)n3)C2)C1 [Compound 38, N^4-(5-cyclopentyl-1H-pyrazol-3-yl)-N^2-(2-methyl-2-azaspiro[3.3]heptan-6-yl)pyrimidine-2,4-diamine] | 20 to 49 | 50 to 79 | 50 to 79 | 80 to 100 | 80 to 100 | 20 to 49 | 20 to 49 | 50 to 79 | – | – | – | – |
| CN1CCC(C(=O)Nc2nccc(Nc3cc(C4CC4)[nH]n3)n2)CC1 [Compound 35, N-(4-((5-cyclopropyl-1H-pyrazol-3-yl)amino)pyrimidin-2-yl)-1-methylpiperidine-4-carboxamide] | < 20 | < 20 | < 20 | 20 to 49 | 20 to 49 | 20 to 49 | – | – | – | – | – | – |
| F[C@H]1CNCC[C@H]1Nc1nccc(Nc2cc(C3CC3)[nH]n2)n1 [Compound 41, N4-(5-Cyclopropyl-1H-pyrazol-3-yl)-N2-[(3S,4R)-3-fluoro-4-piperidyl]pyrimidine-2,4-diamine] | – | 80 to 100 | < 20 | 20 to 49 | 80 to 100 | < 20 | – | – | – | – | – | – |
| c1cc(Nc2cc(C3CCCC3)[nH]n2)nc(NC2CCC3(CC2)CNC3)n1 [Compound 40, N^2-(2-Azaspiro[3.5]nonan-7-yl)-N^4-(5-cyclopentyl-1H-pyrazol-3-yl)pyrimidine-2,4-diamine] | 80 to 100 | 80 to 100 | 80 to 100 | 80 to 100 | 80 to 100 | 50 to 79 | – | < 20 | – | – | – | – |
| F[C@@H]1CNCC[C@@H]1Nc1nccc(Nc2cc(C3CC3)[nH]n2)n1 [Compound 44, N^4-(5-Cyclopropyl-1H-pyrazol-3-yl)-N^2-[(3R,4S)-3-fluoro-4-piperidyl]pyrimidine-2,4-diamine] | 20 to 49 | < 20 | 20 to 49 | 20 to 49 | 50 to 79 | < 20 | < 20 | 20 to 49 | – | – | – | – |
| CN1CC2(CNc3nccc(Nc4cc(C5CC5)[nH]n4)n3)CC1C2 [Compound 4, N^4-(5-Cyclopropyl-1H-pyrazol-3-yl)-N^2-((2-methyl-2-azabicyclo[2.1.1]hexan-4-yl)methyl)pyrimidine-2,4-diamine] | 20 to 49 | < 20 | – | < 20 | 20 to 49 | – | – | < 20 | – | – | – | – |
| CN1CC2(CC(Nc3nccc(Nc4cc(C5CC5)[nH]n4)n3)C2)C1 [Compound 36, N^4-(5-cyclopropyl-1H-pyrazol-3-yl)-N^2-(2-methyl-2-azaspiro[3.3]heptan-6-yl)pyrimidine-2,4-diamine] | 20 to 49 | 50 to 79 | < 20 | 20 to 49 | 80 to 100 | < 20 | 20 to 49 | 50 to 79 | – | – | – | – |
| c1cc(Nc2cc(C3CC3)[nH]n2)nc(NCC23CNC(C2)C3)n1 [Compound 3, N^2-((2-Azabicyclo[2.1.1]hexan-4-yl)methyl)-N^4-(5-cyclopropyl-1H-pyrazol-3-yl)pyrimidine-2,4-diamine] | – | – | – | – | – | – | – | – | < 20 | < 20 | < 20 | 20 to 49 |
| CN1CC[C@@H](Nc2nccc(Nc3cc(C4CC4)[nH]n3)n2)[C@@H](F)C1 [Compound 42, N4-(5-Cyclopropyl-1H-pyrazol-3-yl)-N2-[(3S,4R)-3-fluoro-1-methyl-4-piperidyl]pyrimidine-2,4-diamine] | – | – | 20 to 49 | 20 to 49 | 50 to 79 | – | – | – | – | – | – | – |
